Laboratory results reported in patent US20030105082A1, “Methods for improving the therapeutic response of humans having major depression and carrying the gene for apolipoprotein E4” (priority 2001, published 2003).

Assays:
[1] = system: patients 65 years of age and older with major depression; assay: 8-week double-blind comparison of paroxetine and mirtazapine: Mini Mental State Examination (MMSE), cognition; type: in vivo, human; conditions: for mean MMSE score, ε4 carriers compared with noncarriers: week 8, full cohort, paroxetine p=0.018
Experimental: (§1) A multi-center, randomized, double-blind, 8-week comparison of paroxetine and mirtazapine was performed for 246 nondemented, cognitively intact patients 65 years of age and older with major depression. All patients were genotyped at the apoE locus as discussed further below.
(§2) After an initial evaluation period, the mirtazapine patients started with a 15 mg dose per day. After two weeks of treatment (Day 14), patients' dosages were raised to 30 mg per day. […] Subjects who rate “Much Improved” or “Very Much Improved” on the CGI Scale I continued on the same dose they were receiving during the previous week.
(§3) For paroxetine, the dosing system was the same, except that the starting dosage was 20 mg per day, raised to 30 mg per day, and to a maximum of 40 mg per day.
Mini Mental State Examination (MMSE) (Folstein, M.F. et al., J. Psychiatr. Res. 12:189-198, 1975). This test represents a brief standardized method to grade cognitive mental status. The test assesses orientation, attention, immediate and short-term recall, language, and the ability to follow verbal and written commands. The lower the score, the lower the cognitive mental status.
(§4) All statistical analyses were performed using the SAS software package (available from SAS Institute). For clinical measures of depression (HDRS-21, HDRS-17, GDS, and CGI), analyses of covariance were performed with baseline values as the covariate, and apoE genotype ([…]4 allele carrier vs. non-carrier) and medication (mirtazapine, paroxetine) as the predictors. For remitter and responder analyses of clinical measures of depression, Cochran-Mantel-Haenszel statistics were used. For comparison of medication and genotype groups on baseline demographic measures, two-way analyses of variance were used.

[2] = system: patients 65 years of age and older with major depression; assay: 8-week double-blind comparison of paroxetine and mirtazapine: Geriatric Depression Scale (GDS); type: in vivo, human; conditions: for GDS scores, ε4 carriers compared with noncarriers / GDS scores, ε4 carriers compared with those without ε4 / 50% reduction in GDS score (GDS 50% responders), ε4 carriers compared with those without ε4: day 14; for GDS scores, ε4 carriers compared with noncarriers: mirtazapine p=0.025; for GDS scores, ε4 carriers compared with those without ε4 / 50% reduction in GDS score (GDS 50% responders), ε4 carriers compared with those without ε4 / 50% reduction in GDS score, ε4 carriers compared with noncarriers: full cohort; for GDS scores, ε4 carriers compared with those without ε4: mirtazapine p=0.021; for 50% reduction in GDS score (GDS 50% responders), ε4 carriers compared with those without ε4: mirtazapine p=0.046; for 50% reduction in GDS score, ε4 carriers compared with noncarriers: mirtazapine p<0.005
Experimental: Geriatric Depression Scale (GDS) (Yesavage, J.A. et al., J. Psychiatr. Res. 17:37-49, 1983), a self-rating scale developed specifically for rating depression in the elderly. In the GDS, a lower rating signifies less depression. GDS 50% responders are defined as subjects with a decrease on a post-baseline assessment of at least 50% as compared to baseline.
as §4

[3] = system: patients 65 years of age and older with major depression; assay: 8-week double-blind comparison of paroxetine and mirtazapine: Clinical Global Impression Scale (CGI); type: in vivo, human; conditions: day 14; for CGI scores, ε4 carriers compared with noncarriers: mirtazapine p=0.028; for CGI scores, ε4 carriers compared with those without ε4: treatment x genotype interaction p=0.029
Description: Clinical Global Impression Scale (CGI) (Guy, W., ECDEU Assessment Manual for Psychopharmacology, DHEW Publication No. (ADM) 76-338, rev. 1976). The CGI scale is a global 7-point rating of the severity of the illness taking into account the preceding week (CGI-Severity) and a global 7-point rating of the clinical status of the subject since baseline (CGI-Change). A responder is defined as being “Much Improved” or “Very Much Improved”— having a CGI score of […] 2 according to CGI-Change. Thus, a higher CGI-Severity score corresponds to more severe depression whereas a higher CGI-Change score corresponds to lessened depression, or an improvement in alleviating the symptoms of depression.
as §4

[4] = 8-week comparison of paroxetine and mirtazapine: plasma drug concentrations by apoE genotype
Experimental: as §1, §2, §3
(§5) To screen patients for the gene, genomic DNA was extracted from EDTA-treated whole blood using the Puregene DNA extraction kit (available from Gentra Systems). ApoE genotypes were determined using restriction isotyping (restriction enzyme isoform genotyping) according to the protocol of Hixson and Vernier (J. Lipid Res. 31:545-548,1990), as set forth in Murphy, G.E. et al., Am. J. Psychiatr. 154:603-608, 1997. Genotypes were determined by two observers blind as to the clinical or neuropathological diagnosis.

[5] = 8-week comparison of paroxetine and mirtazapine: discontinuation due to adverse events by apoE genotype
Experimental: as §1, §2, §3, §5

[6] = system: patients 65 years of age and older with major depression; assay: 8-week double-blind comparison of paroxetine and mirtazapine: Hamilton Depression Rating Scale (HDRS-17, HDRS-21); type: in vivo, human; conditions: for HDRS-21 scores, ε4 carriers compared with those without ε4: treatment x genotype interaction p=0.033; for HDRS-17 scores, ε4 carriers compared with those without ε4: treatment x genotype interaction p=0.036; for antidepressant response / onset of action, mirtazapine vs paroxetine / early antidepressant response, ε4 carriers compared with non-ε4 carriers: early weeks of treatment, summary of the example
Description: Hamilton Depression Rating Scale (HDRS; 17 and 21 item versions of a structured interview) (Hamilton, M., J. Neurol. Neurosurg. Psychiatr. 23:56-62, 1960; Hamilton, M., Br. J. Soc. Clin. Psychol. 6:278-296,1967). […] In other words, a lower rating in the HDRS scale signifies less depression. In contrast, HDRS remitters, which are those patients showing the least depression, are defined as subjects who have an HDRS-17 score of less than 7 at a post-baseline visit.
as §4

[7] = day 14, Caucasian patients, p=0.006
[8] = day 14, patients carrying an apoE ε4 allele
[9] = day 14, patients with an apoE ε4 allele, remitter = HDRS-17 score less than 7
[10] = day 14, patients without an apoE ε4 allele

mean MMSE score, ε4 carriers compared with noncarriers [1]	SMILES	GDS scores, ε4 carriers compared with noncarriers ([2]; Caucasian patients)	GDS scores, ε4 carriers compared with those without ε4 [2]	50% reduction in GDS score (GDS 50% responders), ε4 carriers compared with those without ε4 [2]	50% reduction in GDS score, ε4 carriers compared with noncarriers ([2]; day 28)	CGI scores, ε4 carriers compared with noncarriers ([3]; Caucasian patients)	CGI scores, ε4 carriers compared with those without ε4 ([3]; full cohort)	number of patients who discontinued due to adverse events, ε4 carriers vs noncarriers ([5]; full cohort)	HDRS scores, ε4 carriers compared with noncarriers ([6]; day 14, Caucasian patients)	HDRS-21 scores, ε4 carriers compared with those without ε4 ([6]; day 14, full cohort)	HDRS-17 scores, ε4 carriers compared with those without ε4 ([6]; day 14, full cohort)	HDRS-21 50% responders [6, 8]	HDRS-17 remitters [6, 9]	HDRS-21 50% responders [6, 10]	antidepressant response / onset of action, mirtazapine vs paroxetine [6]	early antidepressant response, ε4 carriers compared with non-ε4 carriers [6]	also measured
no effect	CN1CCN2c3ncccc3Cc3ccccc3C2C1 (stereo not shown) [mirtazapine, 1,2,3,4,10,14b-hexahydro-2-methylpyrazino [2,1a]pyrido[2,3-c]benzazepine]	significantly lower	large decrease in GDS scores	significantly more likely	significantly more	significantly better	significantly lower scores	no significant differences	greater improvement	significantly lower scores	significantly lower scores	48%	28%	29.4%	higher rate of antidepressant response	significantly stronger	patients showing a 50% reduction in GDS score ([2]; day 28, Caucasian patients, noncarriers): 16.9%; patients showing a 50% reduction in GDS score ([2]; day 28, Caucasian patients, ε4 carriers): 41.7%; CGI scores, mirtazapine vs paroxetine treated subjects ([3]; Caucasian patients, p=0.037): significantly better; improvement in CGI scores, mirtazapine-treated vs paroxetine-treated patients ([3]; full cohort): Significantly greater improvement; plasma drug concentrations, ε4 carriers vs non-ε4 carriers ([4]; in vivo): no differences; number of patients who discontinued due to adverse events, ε4 carriers vs noncarriers ([5]; in vivo): no significant differences; improvement in HDRS-17 scores, mirtazapine-treated vs paroxetine-treated patients ([6]; day 7, full cohort): significantly greater improvement; mean HDRS-17 scores, mirtazapine vs paroxetine [6, 7]: significantly lower; mean HDRS-21 scores, mirtazapine vs paroxetine [6, 7]: significantly lower; percentage of ε4 carriers responding to medication treatment, mirtazapine vs paroxetine ([6]; day 14, Caucasian subjects, each of 50% reduction in HDRS-17, HDRS-21, HDRS-17 remission, 50% reduction in GDS): greater; improvement in HDRS-17 scores, mirtazapine-treated vs paroxetine-treated patients ([6]; day 14, full cohort): Significantly greater improvement; improvement in HDRS-21 scores, mirtazapine-treated vs paroxetine-treated patients ([6]; day 14, full cohort): Significantly greater improvement; HDRS-17 50% responders, ε4 carriers compared with those without ε4 ([6]; day 14, p=0.049): significantly more; HDRS-17 remitters [6, 10]: 7.1%
significantly lower	Fc1ccc([C@@H]2CCNC[C@H]2COc2ccc3c(c2)OCO3)cc1 [paroxetine]	no effect	no significant difference	no difference	no effect of apoE genotype	no differences	higher scores	no significant differences	less improvement	higher scores	higher scores	none	none	23.3%	slower onset of anti-depressant action	particularly slow to respond	MMSE score, ε4 carriers compared with those without ε4 ([1]; Caucasian subjects, trend, p=0.05): lower MMSE score; effect of the ε4 genotype on the number of patients showing a 50% reduction in GDS ([2]; day 28, Caucasian patients): no significant effect; plasma drug concentrations, ε4 carriers vs non-ε4 carriers ([4]; Caucasian subjects): no differences; plasma drug concentrations, ε4 carriers vs non-ε4 carriers ([4]; full cohort): no differences; number of patients who discontinued due to adverse events, ε4 carriers vs noncarriers ([5]; Caucasian subjects): no significant differences; patients showing a 50% decrease in HDRS-17 score over baseline (HDRS-17 50% responders) ([6]; day 14, patients with an apoE ε4 allele): none
